Measured values taken from patent EP0760376A1, “PEPTIDES INHIBITING PHOSPHOLIPASE C” (Kyowa Hakko Kogyo Co., Ltd., priority 1995, dated 1996).
In brackets after ≈: the same amount, converted by molar mass. Square brackets hold non-standard residues; d marks the D form. Peptide text beside a SMILES is read from it. * marks the point of attachment. 12Ado = NCCCCCCCCCCCC(=O)O; Aun = NCCCCCCCCCCC(=O)O; Butyryl = CCCC(=O)*

Tests used:
[1] = system: Proteus vulgaris ATCC 6897; assay type: cell-based; conditions: ATCC 6897, pH 7
Method: (§1) The antibacterial activity was determined by the agar dilution method using a medium (pH 7.0) which comprises 3 g/l Bacto-tryptone (Difco Laboratories), 1 g/l meat extract, 1 g/l glucose and 16 g/l agar.

[2] = system: Staphylococcus aureus ATCC 6538P; assay type: cell-based; conditions: pH 7
Method: as §1

[3] = system: Pseudomonas aeruginosa Bin H No. 1; assay type: cell-based; conditions: Bin H No. 1, pH 7
Method: as §1

[4] = system: Bacillus subtilis No. 10707; assay type: cell-based; conditions: No. 10707, pH 7
Method: as §1

KMS-4 cells = experiment: Cell growth-inhibiting activity (BrdU incorporation, cell growth detection kit); assay type: cell-based; conditions: Concentration 1 µM, culturing with peptide for 17 hours
Method: The cell growth-inhibiting activity was determined using a cell growth detection kit (Amersham) in the following manner. KMS-4 cells [M. Nanba et al, International Journal of Cancer, 32, 697 (1983)] were suspended in DMEM medium (Nissui Pharmaceutical Co., Ltd.) containing 10% fetal calf serum at a density of 1-2 x 10^4 cells/ml, and 1 ml of the cell suspension was put into each well of a 24-well plate (Corning Inc.). The cells were cultured in a CO2 incubator (37°C, 5% CO2) for 2 days. Then, the medium was replaced with a fresh DMEM medium containing 10% fetal calf serum, and the test peptide was added thereto, followed by culturing for 17 hours. The medium was replaced with a serum-free DMEM medium, and 0.5 ml of a solution prepared by diluting labeled reagent 5-bromo-2'-deoxyuridine (BrdU) and 5-fluoro-2'-deoxyuridine (FdU) (10:1) 1000-fold with the same medium was added to each well, followed by culturing for 2 hours. Then the medium was removed, and the cells were immobilized with an acetic acid/ethanol solution. The immobilized cells were stained according to the method for the cell growth detection kit of Amersham, and then further stained with a 1% Giemsa solution (Merck & Co., Inc.). The number of cells which incorporated BrdU and the total number of cells within one field of vision of a microscope (approximately 200 cells) were determined, and the proportion (%) of stained cells per field of vision was calculated. The above procedure was repeated 10 times, and the average value thereof was defined as the cell growth activity (%). The cell growth-inhibiting activity was calculated in the following manner. That is, the cell growth inhibition rate was calculated according to the following equation: X (%) = (1-B/A) x 100 [formula] where A is the growth activity when no peptide was added, and B is the growth activity when the test peptide was added.

[5] = system: Enterococcus hirae ATCC 10541; experiment: Antibacterial activity, agar dilution method; assay type: cell-based; conditions: pH 7
Method: as §1

[6] = system: Candida albicans ATCC 10231; assay type: cell-based; conditions: ATCC 10231, pH 7
Method: as §1

[7] = system: Klebsiella pneumoniae ATCC 10031; experiment: Antibacterial activity, agar dilution method; assay type: cell-based; conditions: medium pH 7.0
Method: as §1

PLC-γ1 = molecular target: T1, PLC-γ1 (Bos taurus, UniProt P08487); experiment: PLC-inhibiting activity (release of [3H]inositol phosphate from [3H]PIP2); assay type: biochemical, bovine; conditions: 37°C, 10 minutes, pH 6.0, read-out: Inhibition rate (%)
T1 construct: A sample of PLC-γ1 was prepared from bovine thymus; from tissue; host or cells: bovine thymus
T1 sequence (P08487 1-1291): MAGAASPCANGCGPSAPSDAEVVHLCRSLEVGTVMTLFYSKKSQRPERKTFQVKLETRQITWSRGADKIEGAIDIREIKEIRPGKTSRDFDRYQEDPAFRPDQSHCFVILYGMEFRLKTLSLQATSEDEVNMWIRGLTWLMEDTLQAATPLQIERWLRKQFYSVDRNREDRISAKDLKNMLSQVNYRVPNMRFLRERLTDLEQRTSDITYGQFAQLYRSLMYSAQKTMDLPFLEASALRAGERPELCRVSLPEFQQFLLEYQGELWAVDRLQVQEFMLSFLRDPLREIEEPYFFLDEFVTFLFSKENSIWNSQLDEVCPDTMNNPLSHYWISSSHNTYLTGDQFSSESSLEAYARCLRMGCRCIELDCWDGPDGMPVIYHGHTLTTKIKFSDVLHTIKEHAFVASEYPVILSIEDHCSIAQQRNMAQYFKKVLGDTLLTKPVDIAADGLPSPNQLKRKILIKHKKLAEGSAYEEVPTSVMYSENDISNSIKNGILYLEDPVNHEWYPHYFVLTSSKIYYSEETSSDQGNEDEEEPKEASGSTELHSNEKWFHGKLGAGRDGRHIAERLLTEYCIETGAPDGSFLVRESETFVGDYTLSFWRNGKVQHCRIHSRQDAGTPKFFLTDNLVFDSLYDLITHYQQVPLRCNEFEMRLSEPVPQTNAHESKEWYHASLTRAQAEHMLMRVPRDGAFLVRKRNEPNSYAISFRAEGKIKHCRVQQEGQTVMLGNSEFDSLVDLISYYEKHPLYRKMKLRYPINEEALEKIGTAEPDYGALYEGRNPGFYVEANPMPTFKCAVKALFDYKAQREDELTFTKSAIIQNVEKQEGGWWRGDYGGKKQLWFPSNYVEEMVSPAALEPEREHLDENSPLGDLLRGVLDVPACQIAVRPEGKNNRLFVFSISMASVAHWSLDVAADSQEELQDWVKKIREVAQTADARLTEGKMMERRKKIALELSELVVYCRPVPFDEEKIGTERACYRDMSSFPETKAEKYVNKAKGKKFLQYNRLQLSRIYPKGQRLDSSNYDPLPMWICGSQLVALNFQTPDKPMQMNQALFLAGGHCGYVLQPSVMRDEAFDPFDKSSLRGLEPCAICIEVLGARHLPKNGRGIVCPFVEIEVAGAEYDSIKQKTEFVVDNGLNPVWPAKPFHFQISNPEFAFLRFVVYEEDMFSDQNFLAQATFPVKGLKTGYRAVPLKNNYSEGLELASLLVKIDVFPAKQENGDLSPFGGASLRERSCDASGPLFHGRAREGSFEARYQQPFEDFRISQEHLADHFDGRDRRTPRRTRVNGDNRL
Method: A sample of PLC-γ1 was prepared from bovine thymus according to the method described in Y. Honma et al., Biochem. J., 269, 13 (1990). A solution having the composition shown in Table 2 below was prepared on ice and was heated to 37°C to start reaction. After incubation for 10 minutes, 2 ml of a chloroform/methanol mixture (2:1, v/v) was added thereto to stop the reaction. The resulting inositol phosphate was extracted with 0.5 ml of 1 N hydrochloric acid. The extract was separated into two liquid phases by centrifugation (2000 x g, 3 minutes), and the amount of ^3H contained in the supernatant (0.7 ml) was measured with a scintillation counter. Table 2 [table] The inhibition rate (X) was calculated according to the following equation: X (%) = (A-C) / (B-C) x 100 [formula] where A is the obtained value of specific radioactivity, B is the value of specific radioactivity obtained when the same amount of water was added instead of the aqueous solution of the test peptide, and C is the value of specific radioactivity obtained when the same amount of water was added instead of the sample and the aqueous solution of the test peptide.

Row | SMILES | MIC (µg/ml) PV [1] [µg/mL] | MIC (µg/ml) SA [2] [µg/mL] | MIC (µg/ml) PA [3] [µg/mL] | MIC (µg/ml) BS [4] [µg/mL] | Inhibition rate (%) (KMS-4 cells) | MIC (µg/ml) EH [5] [µg/mL] | MIC (µg/ml) CA [6] [µg/mL] | MIC (µg/ml) KP [7] [µg/mL] | inhibition at 116 µM (PLC-γ1; Concentration 116 µM (aqueous solution of test peptide provided for the test)) [%] | inhibition at 23 µM (PLC-γ1; Concentration 23 µM (aqueous solution of test peptide provided for the test)) [%]
1 | CSCC[C@H](NC(=O)[C@H](CCCCN)NC(=O)[C@H](CCCNC(=N)N)NC(=O)[C@H](Cc1ccc(O)cc1)NC(=O)[C@H](CC(C)C)NC(C)=O)C(=O)N[C@@H](CCCNC(=N)N)C(=O)N[C@@H](CC(C)C)C(=O)N[C@@H](CCCNC(=N)N)C(=O)N[C@@H](Cc1ccc(O)cc1)C(=O)N1CCC[C@H]1C(=O)N[C@H](C(=O)NCCCCCCCCCCC(N)=O)C(C)C [Compound (I-6), CH3CO-Leu-Tyr-Arg-Lys-Met-Arg-Leu-Arg-Tyr-Pro-Val-NH-(CH2)10CONH2] (Ac-LYRKMRLRYPV[Aun]-NH2) | 43 (≈ 25 µM) | 171 (≈ 99.5 µM) | 85 (≈ 49.4 µM) | 43 (≈ 25 µM) | 57 | 171 (≈ 99.5 µM) | 171 (≈ 99.5 µM) | 43 (≈ 25 µM) | 85 | 
2 | CCCC(=O)N[C@@H](CC(C)C)C(=O)N[C@@H](Cc1ccc(O)cc1)C(=O)N[C@@H](CCCNC(=N)N)C(=O)N[C@@H](CCCCN)C(=O)N[C@@H](CCSC)C(=O)N[C@@H](CCCNC(=N)N)C(=O)N[C@@H](CC(C)C)C(=O)N[C@@H](CCCNC(=N)N)C(=O)N[C@@H](Cc1ccc(O)cc1)C(=O)N1CCC[C@H]1C(=O)N[C@H](C(=O)NCCCCCCCCCCCC(N)=O)C(C)C [Compound (I-9), C3H7CO-Leu-Tyr-Arg-Lys-Met-Arg-Leu-Arg-Tyr-Pro-Val-NH-(CH2)11CONH2] (Butyryl-LYRKMRLRYPV[12Ado]-NH2) | 100 (≈ 56.8 µM) | 200 (≈ 114 µM) | 200 (≈ 114 µM) | 50 (≈ 28.4 µM) |  |  |  |  |  | 73
